Source: patent US8969325B2, “TRPV1 antagonists” (AbbVie Inc., priority 2011, dated 2015)

Legend:
[1] = target: T1, human TRPV1 (Homo sapiens (Human), UniProt Q8NER1); assay: Capsaicin Activation Assay (intracellular Ca2+, FLIPR); type: cell-based; conditions: recombinant HEK293 cells expressing hTRPV1, 50 nM capsaicin
Procedure, shortened: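 Ca2+ fluorescence was recorded by FLIPR every 1 to 5 seconds in HEK293 cells, clonally selected for stable human TRPV1 expression and plated one day ahead. Test compounds came as serial dilutions of 10 mM DMSO stocks.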

[2] = target: T1, human TRPV1; assay: Acid Activation Assay (pH 5.0, intracellular Ca2+, FLIPR); type: cell-based; conditions: percentage of the maximal pH 5.0-induced response remaining; recombinant HEK293 hTRPV1 cells; maximum concentration tested 37.5 μM
Procedure, shortened: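 Readout: peak [Ca2+]i fluorescence over baseline on FLIPR, expressed as percentage remaining of the maximal pH 5.0-evoked signal. Stable hTRPV1-HEK293 cells with Calcium-4 dye received compound (12 half-log concentrations, maximum 37.5 μM) 3 min before acidic pH 5.0 buffer.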

T1 sequence (Q8NER1 whole entry): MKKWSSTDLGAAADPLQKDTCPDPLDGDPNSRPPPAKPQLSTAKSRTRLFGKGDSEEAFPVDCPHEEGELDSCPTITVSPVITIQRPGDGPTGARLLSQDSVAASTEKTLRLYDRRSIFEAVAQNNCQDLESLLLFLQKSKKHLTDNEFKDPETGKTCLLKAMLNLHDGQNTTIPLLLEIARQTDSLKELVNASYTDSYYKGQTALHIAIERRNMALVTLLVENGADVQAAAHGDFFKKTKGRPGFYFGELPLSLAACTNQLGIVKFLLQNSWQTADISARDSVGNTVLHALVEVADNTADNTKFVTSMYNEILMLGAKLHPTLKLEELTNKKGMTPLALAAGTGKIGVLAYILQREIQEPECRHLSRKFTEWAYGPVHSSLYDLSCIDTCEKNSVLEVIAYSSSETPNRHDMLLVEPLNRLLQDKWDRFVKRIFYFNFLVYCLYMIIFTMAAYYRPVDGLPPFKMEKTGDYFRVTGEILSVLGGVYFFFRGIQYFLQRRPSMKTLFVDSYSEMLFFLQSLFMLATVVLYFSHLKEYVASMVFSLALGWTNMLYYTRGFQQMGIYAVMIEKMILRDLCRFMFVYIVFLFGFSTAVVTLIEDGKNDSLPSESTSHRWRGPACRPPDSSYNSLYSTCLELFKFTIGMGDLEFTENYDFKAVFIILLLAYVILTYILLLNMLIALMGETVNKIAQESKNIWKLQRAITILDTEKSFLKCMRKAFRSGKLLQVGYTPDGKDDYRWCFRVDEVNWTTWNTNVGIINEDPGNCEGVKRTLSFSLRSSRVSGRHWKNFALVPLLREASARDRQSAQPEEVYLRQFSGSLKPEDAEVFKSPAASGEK

Row | IC50 [1] | human TRPV1 H^+ (max % remain) [2] | SMILES
1 | 2.5 µM | 100% | O=C1COc2ccc(NC(=O)NCC3COc4ccc(F)cc4C3)cc2N1 (centres unmarked) [Example 133, 1-[(6-fluoro-3,4-dihydro-2H-chromen-3-yl)methyl]-3-(3-oxo-3,4-dihydro-2H-1,4-benzoxazin-6-yl)urea]
2 | 0.019 µM | 43% | Cn1c(=O)ccc2c(NC(=O)N[C@@H]3CC(CF)(CF)Oc4cc(C(F)(F)F)ccc43)cccc21 [Example 92, 1-[(4R)-2,2-bis(fluoromethyl)-7-(trifluoromethyl)-3,4-dihydro-2H-chromen-4-yl]-3-(1-methyl-2-oxo-1,2-dihydroquinolin-5-yl)urea]
3 | 0.18 µM | 101% | CCC1(CC)C[C@@H](NC(=O)Nc2ccc3c(c2)N(C)C(=O)CC3)c2ccc(OC(F)(F)F)cc2O1 [Example 272, 1-[(4R)-2,2-diethyl-7-(trifluoromethoxy)-3,4-dihydro-2H-chromen-4-yl]-3-(1-methyl-2-oxo-1,2,3,4-tetrahydroquinolin-7-yl)urea]
4 | 7.1 µM | 41% | O=C1CCc2ccc(NC(=O)N[C@@H]3CC4(CCCC4)Oc4ccccc43)cc2N1 [Example 244, 1-[(4R)-3,4-dihydrospiro[chromene-2,1′-cyclopentan]-4-yl]-3-(2-oxo-1,2,3,4-tetrahydroquinolin-7-yl)urea]
5 | 0.22 µM | 50% | CN1Cc2ccc(NC(=O)N[C@@H]3CCc4cc(F)ccc43)cc2NC1=O [Example 202, 1-[(1R)-5-fluoro-2,3-dihydro-1H-inden-1-yl]-3-(3-methyl-2-oxo-1,2,3,4-tetrahydroquinazolin-7-yl)urea]
6 | 0.013 µM | 48% | O=C1CCc2ccc(NC(=S)N[C@@H]3CC(CF)(CF)Oc4cc(Cl)ccc43)cc2N1 [Example 252, 1-[(4R)-7-chloro-2,2-bis(fluoromethyl)-3,4-dihydro-2H-chromen-4-yl]-3-(2-oxo-1,2,3,4-tetrahydroquinolin-7-yl)thiourea]
7 | 0.008 µM | 37% | Cn1c(=O)ccc2c(NC(=O)N[C@@H]3CCc4cc(Cl)ccc43)cccc21 [Example 96, 1-[(1R)-5-chloro-2,3-dihydro-1H-inden-1-yl]-3-(1-methyl-2-oxo-1,2-dihydroquinolin-5-yl)urea]
8 | 0.23 µM | 12% | CCC1(CC)C[C@@H](NC(=O)Nc2ccc3c(c2)NC(=O)N(C)C3)c2ccc(C(F)(F)F)cc2O1 [Example 180, 1-[(4R)-2,2-diethyl-7-(trifluoromethyl)-3,4-dihydro-2H-chromen-4-yl]-3-(3-methyl-2-oxo-1,2,3,4-tetrahydroquinazolin-7-yl)urea]
9 | 0.4 µM | 56% | CN1Cc2ccc(NC(=O)N[C@@H]3CC4(CCCC4)Oc4ccccc43)cc2NC1=O [Example 205, 1-[(4R)-3,4-dihydrospiro[chromene-2,1′-cyclopentan]-4-yl]-3-(3-methyl-2-oxo-1,2,3,4-tetrahydroquinazolin-7-yl)urea]
10 | 1.2 µM | 28% | CN1C(=O)NCc2c(NC(=O)N[C@@H]3CCOc4ccccc43)cccc21 [Example 168, 1-[(4R)-3,4-dihydro-2H-chromen-4-yl]-3-(1-methyl-2-oxo-1,2,3,4-tetrahydroquinazolin-5-yl)urea]
11 | 0.17 µM | 110% | O=C1COc2ccc(NC(=O)N[C@@H]3CCc4cc(Cl)ccc43)cc2N1 [Example 119, 1-[(1R)-5-chloro-2,3-dihydro-1H-inden-1-yl]-3-(3-oxo-3,4-dihydro-2H-1,4-benzoxazin-6-yl)urea]
12 | 0.046 µM | 76% | C[C@@]1(C(F)F)C[C@@H](NC(=O)Nc2ccc3c(c2)NC(=O)CO3)c2ccc(Cl)cc2O1 [Example 322, 1-[(2S,4R)-7-chloro-2-(difluoromethyl)-2-methyl-3,4-dihydro-2H-chromen-4-yl]-3-(3-oxo-3,4-dihydro-2H-1,4-benzoxazin-6-yl)urea]
13 | 10 µM | 75% | CN1C(=O)CCc2ccc(NC(=O)N[C@@H]3CC4(CCCC4)Oc4ccccc43)cc21 [Example 288, 1-[(4R)-3,4-dihydrospiro[chromene-2,1′-cyclopentan]-4-yl]-3-(1-methyl-2-oxo-1,2,3,4-tetrahydroquinolin-7-yl)urea]
14 | 0.021 µM | 83% | CC1(C)C[C@@H](NC(=O)Nc2ccc3c(c2)NC(=O)CO3)c2ccc(Cl)c(F)c2O1 [Example 325, 1-[(4R)-7-chloro-8-fluoro-2,2-dimethyl-3,4-dihydro-2H-chromen-4-yl]-3-(3-oxo-3,4-dihydro-2H-1,4-benzoxazin-6-yl)urea]
15 | 0.016 µM | 20% | CN1C(=O)NCc2c(NC(=O)N[C@@H]3CC(C)(C)Oc4cc(C(F)(F)F)ccc43)cccc21 [Example 150, 1-[(4R)-2,2-dimethyl-7-(trifluoromethyl)-3,4-dihydro-2H-chromen-4-yl]-3-(1-methyl-2-oxo-1,2,3,4-tetrahydroquinazolin-5-yl)urea]
16 | 1.6 µM | 55% | CN1Cc2ccc(NC(=O)N[C@H]3CC(C)(C)Oc4ccc(F)cc43)cc2NC1=O [Example 204, 1-[(4S)-6-fluoro-2,2-dimethyl-3,4-dihydro-2H-chromen-4-yl]-3-(3-methyl-2-oxo-1,2,3,4-tetrahydroquinazolin-7-yl)urea]
17 | > 38 µM | 101% | O=C1COc2ccc(NC(=O)N[C@@H]3CCOc4ccc(F)cc43)cc2N1 [Example 118, 1-[(4R)-6-fluoro-3,4-dihydro-2H-chromen-4-yl]-3-(3-oxo-3,4-dihydro-2H-1,4-benzoxazin-6-yl)urea]
18 | 0.086 µM | 30% | O=C1CCc2ccc(NC(=O)N[C@H]3CC4(CCC4)Oc4ccc(F)cc43)cc2N1 [Example 242, 1-[(4S)-6-fluoro-3,4-dihydrospiro[chromene-2,1′-cyclobutan]-4-yl]-3-(2-oxo-1,2,3,4-tetrahydroquinolin-7-yl)urea]
19 | 0.22 µM | 19% | CCCC1(CCC)C[C@@H](NC(=O)Nc2ccc3c(c2)NC(=O)CC3)c2cc(F)ccc2O1 [Example 227, 1-[(4R)-6-fluoro-2,2-dipropyl-3,4-dihydro-2H-chromen-4-yl]-3-(2-oxo-1,2,3,4-tetrahydroquinolin-7-yl)urea]
20 | 31 µM | 98% | O=C1COc2ccc(NC(=O)NCC3CCc4ccc(C(F)(F)F)cc4O3)cc2N1 (centres unmarked) [Example 132, 1-(3-oxo-3,4-dihydro-2H-1,4-benzoxazin-6-yl)-3-{[7-(trifluoromethyl)-3,4-dihydro-2H-chromen-2-yl]methyl}urea]
21 | 4.2 µM | 33% | CN1C(=O)CCc2ccc(NC(=O)N[C@@H]3CC(C)(C)Oc4cc(Cl)ccc43)cc21 [Example 277, 1-[(4R)-7-chloro-2,2-dimethyl-3,4-dihydro-2H-chromen-4-yl]-3-(1-methyl-2-oxo-1,2,3,4-tetrahydroquinolin-7-yl)urea]
22 | 0.24 µM | 43% | CN1Cc2ccc(NC(=O)N[C@@H]3C[C@](C)(CF)Oc4cc(C(F)(F)F)ccc43)cc2NC1=O [Example 206, 1-[(2R,4R)-2-(fluoromethyl)-2-methyl-7-(trifluoromethyl)-3,4-dihydro-2H-chromen-4-yl]-3-(3-methyl-2-oxo-1,2,3,4-tetrahydroquinazolin-7-yl)urea]
23 | 0.21 µM | 51% | CN1Cc2ccc(NC(=O)N[C@@H]3CC(C)(C)Oc4c3ccc(F)c4Cl)cc2NC1=O [Example 172, 1-[(4R)-8-chloro-7-fluoro-2,2-dimethyl-3,4-dihydro-2H-chromen-4-yl]-3-(3-methyl-2-oxo-1,2,3,4-tetrahydroquinazolin-7-yl)urea]
24 | 0.26 µM | 68% | CN1C(=O)CCc2ccc(NC(=O)N[C@H]3CC4(CCC4)Oc4ccc(F)cc43)cc21 [Example 286, 1-[(4S)-6-fluoro-3,4-dihydrospiro[chromene-2,1′-cyclobutan]-4-yl]-3-(1-methyl-2-oxo-1,2,3,4-tetrahydroquinolin-7-yl)urea]
25 | 1.3 µM | 60% | CC1(C)C[C@@H](NC(=O)Nc2ccc3c(c2)NC(=O)C(N2CCOCC2)C3)c2ccc(F)cc2O1 (stereo partly drawn) [Example 301, 1-[(4R)-7-fluoro-2,2-dimethyl-3,4-dihydro-2H-chromen-4-yl]-3-[3-(morpholin-4-yl)-2-oxo-1,2,3,4-tetrahydroquinolin-7-yl]urea]
26 | 0.12 µM | 50% | CN1Cc2ccc(NC(=O)N[C@@H]3CC(C)(C)Oc4cc(F)ccc43)cc2NC1=O [Example 176, 1-[(4R)-7-fluoro-2,2-dimethyl-3,4-dihydro-2H-chromen-4-yl]-3-(3-methyl-2-oxo-1,2,3,4-tetrahydroquinazolin-7-yl)urea]
27 | 0.6 µM | 17% | O=C(Nc1ccc2c(c1)NC(=O)N(CCO)C2)N[C@@H]1CC2(CCCC2)Oc2ccccc21 [Example 317, 1-[(4R)-3,4-dihydrospiro[chromene-2,1′-cyclopentan]-4-yl]-3-[3-(2-hydroxyethyl)-2-oxo-1,2,3,4-tetrahydroquinazolin-7-yl]urea]
28 | 0.058 µM | 87% | C[C@]1(C(F)(F)F)C[C@@H](NC(=O)Nc2ccc3c(c2)NC(=O)CO3)c2ccccc2O1 [Example 126, 1-[(2R,4R)-2-methyl-2-(trifluoromethyl)-3,4-dihydro-2H-chromen-4-yl]-3-(3-oxo-3,4-dihydro-2H-1,4-benzoxazin-6-yl)urea]
